Patent publication US6689757B1, “Methods for vaccination and vaccines therefor” (M.L. Laboratories PLC, priority 1996, dated 2004)
Entries after “also recorded” stand apart in the source; their conditions may differ. Where two headings read alike, the source gives them in different places.

Legend:
COS cells = assay type: cell-based; conditions: pCMVβ DNA; medium with chloroquine; 5 hours; triplicate; FIG. 7
[1] = Photon correlation spectroscopy (PCS) particle size of K6CL22-DNA complexes; assay type: physicochemical
[2] = Zeta potential analysis of K6CL22-DNA complexes; assay type: physicochemical; conditions: peptide:DNA ratio 1.4:1; Hepes
human dendritic cells = assay type: cell-based
cells = assay type: cell-based

Substance | transfection of COS cells (β-galactosidase activity, relative light units per mg of protein) (COS cells) | size of large particles/aggregates of complex ([1]; 150 mM NaCl, after one hour at room temperature, DNA 40 μg/ml) | average (Zav) particle size ([1]; K6CL22-DNA complexes) | average ratio at which aggregation occurs ([1]; K6CL22-DNA complexes) | ratio range in which aggregation occurs ([1]; K6CL22-DNA complexes) | zeta potential of the complex [2] | optimal peptide:DNA ratio for transfection (human dendritic cells; […], FIGS. 16 and 17) | transfection of dendritic cells (human dendritic cells; complexes of K6Cl22 peptide and pCMVb) | transfection efficiency, CL22-complexed DNA compared to CL26-complexed DNA (human dendritic cells; peptide/DNA ratio between 2 and 2.6, FIG. 18) | peptide/DNA ratio with highest transfection efficiency (human dendritic cells; ratio varied 1.2-2.6, 40 μM chloroquine, […], FIG. 10) | effect of coadministered chloroquine on transfection efficiency (cells) | transfection efficiency, CL26-complexed DNA compared to CL22-complexed DNA (human dendritic cells; […], FIGS. 16 and 17) | transfection efficiency, CL26-complexed DNA compared to CL22-complexed DNA (human dendritic cells; peptide/DNA ratio between 1 and 1.8, FIG. 18)
NH2-KKKKKKGGFLGFWRGENGRKTRSAYERMCNILKGK-COOH (H-KKKKKKGGFLGFWRGENGRKTRSAYERMCNILKGK-OH) [K6CL22] | have been transfected; also recorded: very efficient transfection | approx. 100 nm | approximately 100 nm | 1.4 μg peptide/μg DNA | 1.2-1.6 μg peptide/μg DNA | zero | 1.6-2.2 mg CL22:1 mg DNA | have been transfected | greater | 1.4-2.0 | Increased transfection efficiency | – | –
H-KKKKKKKKKKKKGGFLGFWRGENGRKTRSAYERMCNILKGK-OH [CL26] | – | – | – | – | – | – | 1.6 mg CL26:1 mg DNA | – | – | – | – | higher efficiency | higher efficiency
